Data set [1] has as its system SK-N-DZ (human neuroblastoma) cells. As to the kind of experiment: Proliferation assay (CellTiter-Glo), SK-N-DZ. The data set is classed as cell-based. The note with it: 72 after compound addition, n = 4. How it is done: (§1) SK-N-DZ (human neuroblastoma; ATCC# CRL-2149) or U118 MG (human glioblastoma/astrocytoma; ATCC# HTB-15) or U87 MG (human glioma; ATCC# HTB-14) or H4 (human neuroglioma; ATCC# HTB 178) cells are cultivated under standard conditions (RPMI 1640/Glutamax 2 mM/glucose 2 g/l/SoBicarbonate 2 g/1/10% FCS; 37° C. in 5% CO2 in a humid incubator). Cells are suspended using Accutase (PAA) and seeded at 1000 cells/Well in 100 μL medium/well in a 96-well plate (Greiner Kat. Nr. 655073). The test compound is added 24 Stunden after seeding. Commercial assays (CellTiter-Glo® Luminescent Cell Viability Assay; Promega Kat. Nr. G7571) are used 72 later according to the manufacturers instructions. IC50 is calculated using GraphPad Prism.
(§2) Compounds are solved in 100% DMSO and diluted 1:20 in medium before used diluted 1:10 in the test.
On the technique in general: In ATP-based viability assays light output follows the ATP content of the culture.

Data set [2] deals with U118 MG (human glioblastoma/astrocytoma) cells. As to the kind of experiment: Proliferation assay (CellTiter-Glo), U118 MG. The data set is classed as cell-based. The note with it: U-118-MG, n = 4. How it is done:
as §1, §2

Data set [3] concerns U87 MG (human glioma) cells. As to the kind of experiment: Proliferation assay (CellTiter-Glo), U87 MG. The note with it: U-87 MG, n = 2. The data set is classed as cell-based. The procedure:
as §1, §2

Data set [4] relates to H4 (human neuroglioma) cells. As to the kind of experiment: Proliferation assay (CellTiter-Glo), H4. The data set is classed as cell-based. Conditions: n = 1. The procedure:
as §1, §2

A short description of data set [5]: Crossing blood brain barrier in mice. Conditions: 200 mg/kg orally for 14 days. The data set is classed as in vivo, Male Ncr nude mice. How it is done:
Male Ncr nude mice (n=3/time point) is treated for 14 days orally with a therapeutically relevant dose of example 153 (200 mg/kg) or a vehicle control (time: Oh). Daily treatment with a high dose like this is necessary to effectively treat subcutaneously transplanted tumors in these mice. After treatment, mice are sacrified at indicated time points, blood and brain tissue is removed and analysed. The method is as described above in example 2 under “Stability in rat and human plasma”. […] Mean brain concentrations are indicated as absolute concentration and relative to plasma concentration at similar time points (from the same experiment) in the table below.

Data set [6] can be described thus: Solubility in aqueous 5% dextrose. The data set is classed as physicochemical. The note with it: for solubility thermodynamic at 24 h: saline or isotonic, thermodynamic from solid, 5% Dextrose. How it is done:
The test compound is dissolved in an aqueous solution of 5% dextrose adjusted to the respective pH with 1n HCl. After shaking at room temperature for 24 h the probe is subjected to an ultra centrifugation process at 224000 g for 30 min. DMSO is added to the supernatant and the content of test compound is determined and quantified by HPLC employing a two point calibration curve of the test compound in DMSO.
HPLC Method: Agilent 1100 with DAD (G1315A), quat. Pump (G1311A), Autosampler CTC HTS PAL, Degaser (G1322A) and column thermostate (G1316A); Column: Zorbax Extend-C18 3.5μ; temperature: 40° C.; Eluent A: Water+5 ml Perchloric acid/1; Eluent B: Acetonitrile; flow rate: 0.7 mL/min; Gradient: 0-0.5 min 98% A, 2% B; Rampe: 0.5-4.5 min 10%, A 90% B; 4.5-6 min 10% A, 90% B; Rampe: 6.5-6.7 min 98% A, 2% B; 6.7-7.5 min 98% A, 2% B.

A short description of data set [7]: Stability in buffer at different pH-values. The data set is classed as physicochemical. How it is done:
To determine the stability of test compounds at different pH-values 0.3 mg of the dry compound is dissolved in 0.5 ml of acetonitrile and the sample is sonified for 10 seconds. Then buffer solutions are added and the samples are sonified again.
pH 2: 0.03 M citric acid/0.0082 M hydrochloric acid/0.061 M sodium chloride pH 3: 0.04 M citric acid/0.021 M sodium hydroxide/0.06 M sodium chloride pH 4: 0.056 M citric acid/0.068 M sodium hydroxide/0.044 M Sodium chloride pH 5: 0.096 M citric acid/0.2 M sodium hydroxide pH 7: 0.029 M sodium hydroxide solution/0.05 M potassium dihydrogen phosphate pH 10: 0.013 M sodium tetraborate/0.018 M sodium hydroxide
The test compound concentrations in solution is analyzed by HPLC every hour during 24 hours at 37° C.
Agilent 1100 with DAD (G1314A), binary pump (G1312A), autosampler (G1329A), column thermostat (G1316A), thermostat (G1330A), Column: Kromasil 100 C18/60×2.1 mm/3.5 μm, Column temperature: 37° C., Eluent A: Water+5 ml perchloric acid/1, Eluent B: Acetonitrile, Gradient: 0-1.0 min 98% A, 2% B; 1.0-9.0 min 2% A, 98% B; 9.0-13.0 min 2% A, 98% B; 13.0-13.5 min 98% A, 2% B; 13.5-15.0 98% A, 2% B, Flow rate: 0.75 ml/min, Detection: 210 nm

The next data set can be described thus: Stability in rat plasma. The class given is in vitro ADME. The note with it: within 1 hour.
Data set [8] can be described thus: Stability in human plasma. The class given is in vitro ADME. Conditions: within 1 hour.

Broadly, the IC50 is the concentration at which inhibition is half-maximal. A low value points to higher potency. On to `CS(=O)(=O)NCc1cccc(-c2ccc3c(N)c(C(=O)c4ccc(Cl)cc4Cl)oc3c2)c1` [Example 153, N-{3-[3-amino-2-(2,4-dichlorobenzoyl)-1-benzofuran-6-yl]benzyl}methanesulfonamide], for which the IC50 is 110 nM in [1], 120 nM in [2], 320 nM in [3] and 170 nM in data set [4]. Further, the “crossing of the blood brain barrier” value in [5] is given as “crosses the blood brain barrier”. The “brain concentration % of Plasma concentration” value is 9-19% in data set [5] (0.167 h), 17-18% in data set [5] (0.5 h) and 12-90% in [5] (1.5 h). For the same molecule, the concentration at 0.167 h in data set [5] (male, Ncr nude, mouse, brain, po, 0.167 h) amounted to 600 ng/mL. The molecule also came in with a concentration at 0.5 h in data set [5] (male, Ncr nude, mouse, brain, po, 0.5 h) of 1400 ng/mL. The same molecule gave a concentration at 1.5 h in data set [5] (male, Ncr nude, mouse, brain, po, 1.5 h) of 1000 ng/mL.

Broadly, the solubility (thermodynamic) is the concentration in solution at equilibrium with solid. Consider `CC(C)[C@H](N)C(=O)N(Cc1cccc(-c2ccc3c(N)c(C(=O)c4ccc(Cl)cc4Cl)oc3c2)c1)S(C)(=O)=O.Cl` [Example 366, N-{3-[3-amino-2-(2,4-dichlorobenzoyl)-1-benzofuran-6-yl]benzyl}-N-(methylsulfonyl)-L-valinamide, hydrochloride], for which the “degradation during solubility determination” value in [6] (5% dextrose, 24 h room temperature) is reported as “no degradation has been observed”. The thermodynamic solubility at 24 h in [6] (aqueous 5% dextrose solution, pH 3, 24 h room temperature) is 360 µg/mL; in [6] (aqueous 5% dextrose solution, pH 4, 24 h room temperature), 350 µg/mL. Besides, the “Amount of remaining compound” value in data set [7] (buffer pH 2, after 24 h at 37° C.) came to 100%; in [7] (buffer pH 3, after 24 h at 37° C.) it was 100%; in [7] (buffer pH 4, after 24 h at 37° C.), 94%; in data set [7] (buffer pH 5, after 24 h at 37° C.) it was 58%; in [7] (buffer pH 7, after 24 h at 37° C.), 4%; in [7] (buffer pH 10, after 24 h at 37° C.) it was 2%. Besides, the cleaved in plasma entry (in “Stability in rat plasma”; in data set [8]) was “more than 90%” each time.

As usually defined, the solubility is the dissolved amount per volume that the medium holds. For the molecule `CS(=O)(=O)NCc1cccc(-c2ccc3c(N)c(C(=O)c4ccc(Cl)cc4Cl)oc3c2)c1` [N-{3-[3-amino-2-(2,4-dichlorobenzoyl)-1-benzofuran-6-yl]benzyl}methanesulfonamide], the solubility at 24 h in data set [6] (aqueous 5% dextrose solution, parent compound, pH not stated) was below 0.1 µg/mL.

The values are drawn from patent US20100125073A1, “BENZOFURAN AND BENZOTHIOPHENE DERIVATIVES USEFUL IN THE TREATMENT OF CANCERS OF THE CENTRAL NERVOUS SYSTEM” (priority 2006, published 2010).
